Measurements published in PubChem BioAssay AID179 (DTP/NCI, 2004).
pEC50, pIC50: −log10 of the molar value. Active and inactive are the calls of the source.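 How the source made its calls: active means compounds giving half or more protection of infected cells from virus-caused growth loss, again on retest; inactive means the rest.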

Test system: CEM cells HIV-1 protection, formazan growth assay
Experiment: NCI AIDS Antiviral Assay
Conditions: for pIC50: measured here: growth of uninfected CEM cells
Summary of the method: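 Soluble formazan readout of cell growth; CEM cells ± HIV-1; 5 drug concs. ≥50% protection → retest; ≥50% again = moderately active; reproducible 100% = confirmed active.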

Row | Compound | pEC50 | pIC50 | outcome
1 | Nc1c2nc(Nc3ccccc3)sc2nc(=S)n1-c1ccc([N+](=O)[O-])cc1 | < 4.30 | < 4.30 | –
2 | CCN=C1C=C/C(=C(/c2ccc(NCC)c(C)c2)c2cc(O)c(S(=O)(=O)O)cc2S(=O)(=O)O)C=C1C | – | – | inactive
3 | Cc1ccc(/C=C/C(=O)C(C)(C)CN2CCCCC2)cc1 | < 4.56 | < 4.56 | –
4 | CC1N(C)C(=O)OC12CCN(CCCC(=O)c1ccc(F)cc1)CC2 (stereo not given) | < 3.70 | < 3.70 | –
5 | C=CC1CCC[N+]1(CC(=O)OCC)Cc1ccccc1 (stereo not given) | < 3.70 | < 3.70 | –
6 | COc1ccc2c(c1)OCC(O)(c1ccccc1)C2=O (stereo not given) | < 3.70 | 3.81 | –
7 | CCc1c(C)c(C#N)c(=S)n(C2OC(COC(C)=O)C(OC(C)=O)C(OC(C)=O)C2OC(C)=O)c1C (stereo not given) | < 3.70 | < 3.70 | –
8 | CN(C)C(=S)Oc1ccc2ccc(=O)oc2c1 | < 3.70 | < 3.70 | –
